One assay concerns the target T1, DGKα (Homo sapiens, UniProt P23743).
T1 construct: His; purchased Signal Chem D21-10BH
As to the kind of experiment: In vitro DGKα inhibition assay (ADP-Glo). The following applies: His-tagged human recombinant DGKα 0.1 nM, 50 μM ATP, 20 μM DLG, 90 minute incubation. Format: biochemical. The procedure:
(§1) The DGKα and DGKζ biochemical reactions were performed using His-tagged human recombinant enzymes (Signal Chem, DGKα, #D21-10BH; DGKζ, #D30-10H)) and DLG (Dilauroyl-sn-glycerol) lipid substrate (Signal Chem, #D430-59). ADP-Glo assay was performed using ADP-Glom kinase Assay kit (Promega, #V9104). The reactions were carried out in assay buffer containing 40 mM Tris, pH 7.5, 0.1% CHAPS, 0.1% Prionex, 40 mM NaCl, 5 mM MgCl2, 1 mM CaCl2), and 1 mM DTT. DGKα reactions contained 0.1 nM DGKα, 50 μM ATP, and 20 μM DLG. And DGKζ reactions contained 0.4 nM DGKζ, 30 μM ATP, and 20 μM DLG.
(§2) For compound inhibition studies, 40 nL test compound in DMSO was added to wells of white polystyrene plates in 384-well (Greiner, #784075) or 1536-well format (Greiner, #782075). Compounds were added with top concentration of 2 mM with 11 point, 3-fold dilution series. Enzyme solution (contains 2×DGK enzyme concentration in 1× assay buffer) was added to the plate in 2 μL/well volume, followed by 2 μL/well of substrate solution (contains 2× concentration of ATP and DLG substrate in 1× assay buffer). Plates were then centrifuged for 1 min at 1200 RPM and sealed or lidded. For 4 μL reaction volume, test compounds were therefore diluted 100× to final top concentration of 20 μM. After 90 minute incubation, reactions were quenched by addition of 2 μL/well Promega ADP-Glo Reagent, followed by centrifugation and lidding. After 60 min incubation, 2 μL/well Promega Kinase Detection Reagent was added, plates centrifuged, and incubated for 30 min. Plates were then read using Luminescence method on BMG PHERAstar FSX plate reader. Percent inhibition was calculated and IC50s were determined using 4-parameter fit in Genedata Screener. Labcyte Echo acoustic dispenser was used for compound addition, and Formulatrix Tempest liquid handler was used for all reagent dispenses.
(In general: In ADP-Glo the light output rises with the ADP produced.)

A further assay deals with T2, DGKζ (Homo sapiens, UniProt Q13574).
T2 construct: His; purchased Signal Chem D30-10H
T2 sequence (Q13574 whole entry): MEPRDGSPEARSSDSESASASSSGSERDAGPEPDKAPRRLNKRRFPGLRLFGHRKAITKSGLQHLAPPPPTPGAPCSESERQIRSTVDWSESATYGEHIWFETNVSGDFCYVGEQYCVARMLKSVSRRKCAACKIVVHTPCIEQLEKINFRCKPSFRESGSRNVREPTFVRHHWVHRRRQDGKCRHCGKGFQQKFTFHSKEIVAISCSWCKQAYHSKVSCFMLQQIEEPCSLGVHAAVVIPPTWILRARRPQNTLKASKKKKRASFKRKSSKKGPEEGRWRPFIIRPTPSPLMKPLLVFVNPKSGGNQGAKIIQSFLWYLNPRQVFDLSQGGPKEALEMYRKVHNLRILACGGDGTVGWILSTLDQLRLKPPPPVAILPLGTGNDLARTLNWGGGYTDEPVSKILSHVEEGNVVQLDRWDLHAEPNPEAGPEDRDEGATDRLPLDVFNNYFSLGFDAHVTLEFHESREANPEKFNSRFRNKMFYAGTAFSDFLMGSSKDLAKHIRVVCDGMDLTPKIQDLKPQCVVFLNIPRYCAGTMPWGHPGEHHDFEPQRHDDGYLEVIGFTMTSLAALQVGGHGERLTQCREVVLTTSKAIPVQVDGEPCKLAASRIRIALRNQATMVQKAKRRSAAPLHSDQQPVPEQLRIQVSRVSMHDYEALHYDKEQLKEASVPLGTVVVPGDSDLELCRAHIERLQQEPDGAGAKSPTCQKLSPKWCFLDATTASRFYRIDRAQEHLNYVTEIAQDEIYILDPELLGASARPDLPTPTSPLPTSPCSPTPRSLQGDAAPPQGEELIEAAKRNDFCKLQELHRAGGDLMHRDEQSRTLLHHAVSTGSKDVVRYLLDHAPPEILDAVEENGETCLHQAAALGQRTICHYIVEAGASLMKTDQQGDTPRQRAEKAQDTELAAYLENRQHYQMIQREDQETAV
As to the kind of experiment: In vitro DGKζ inhibition assay (ADP-Glo). Format: biochemical. The following applies: His-tagged human recombinant DGKζ 0.4 nM, 30 μM ATP, 20 μM DLG, 90 minute incubation. How it is done:
as §1, §2

The structures appear in SMILES notation.

T1 sequence (P23743 whole entry): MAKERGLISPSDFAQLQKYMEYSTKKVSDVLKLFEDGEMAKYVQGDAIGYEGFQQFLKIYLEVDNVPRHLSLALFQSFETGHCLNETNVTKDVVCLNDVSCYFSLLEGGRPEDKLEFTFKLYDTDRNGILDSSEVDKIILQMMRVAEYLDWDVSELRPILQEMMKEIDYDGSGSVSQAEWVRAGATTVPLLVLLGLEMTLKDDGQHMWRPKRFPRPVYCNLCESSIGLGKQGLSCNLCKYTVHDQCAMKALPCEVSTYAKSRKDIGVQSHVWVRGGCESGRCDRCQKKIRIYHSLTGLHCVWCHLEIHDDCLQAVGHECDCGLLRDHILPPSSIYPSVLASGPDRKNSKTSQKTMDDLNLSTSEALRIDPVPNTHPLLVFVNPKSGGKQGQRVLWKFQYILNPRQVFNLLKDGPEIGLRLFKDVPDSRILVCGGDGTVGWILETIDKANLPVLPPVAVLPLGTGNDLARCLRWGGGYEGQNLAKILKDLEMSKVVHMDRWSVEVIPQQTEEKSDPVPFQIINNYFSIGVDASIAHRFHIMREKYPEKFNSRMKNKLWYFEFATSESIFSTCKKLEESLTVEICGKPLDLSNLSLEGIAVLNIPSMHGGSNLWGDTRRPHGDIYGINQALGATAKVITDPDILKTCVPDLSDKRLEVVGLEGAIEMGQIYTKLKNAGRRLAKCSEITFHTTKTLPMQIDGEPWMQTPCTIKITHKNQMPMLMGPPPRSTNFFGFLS

Broadly, the IC50 is the concentration that inhibits the measured activity by half. Take `COc1ccc2c(n1)c1c(c(=O)n2C)N(C)C(=O)[C@H]2CN(C(c3ccc(F)cc3)c3ccc(F)cc3)[C@H](C)CN12` [Example 7, (8aR,11R)-10-(Bis(4-fluorophenyl)methyl)-2-methoxy-5,7,11-trimethyl-5,7,9,10,11,12-hexahydro-6H-pyrazino[1′,2′:4,5]pyrazino[2,3-c][1,5]naphthyridine-6,8(8aH)-dione]: the concentration for half-maximal inhibition (IC50) is not above 0.04 µM on DGKα and more than 2 µM on DGKζ.
As for `C[C@@H]1CN2c3c(c(=O)n(C)c4ccc(CC#N)nc34)N(C)C(=O)[C@H]2CN1C(c1ccc(F)cc1)c1ccc(F)cc1` [Example 6, 2-((8aR,11R)-10-(Bis(4-fluorophenyl)methyl)-5,7,11-trimethyl-6,8-dioxo-5,7,8,8a,9,10,11,12-octahydro-6H-pyrazino[1′,2′:4,5]pyrazino[2,3-c][1,5]naphthyridin-2-yl)acetonitrile], the IC50 on DGKα and on DGKζ was not above 0.04 µM throughout.
In the case of `C[C@@H]1CN2c3c(c(=O)n(C)c4ccc(-c5cnn(C)c5)nc34)N(C)C(=O)[C@H]2CN1C(c1ccc(F)cc1)c1ccc(F)cc1` [Example 8, (8aR,11R)-10-(Bis(4-fluorophenyl)methyl)-5,7,11-trimethyl-2-(1-methyl-1H-pyrazol-4-yl)-5,7,9,10,11,12-hexahydro-6H-pyrazino[1′,2′:4,5]pyrazino[2,3-c][1,5]naphthyridine-6,8(8aH)-dione], the IC50 at DGKα is not above 0.04 µM; at DGKζ, more than 2 µM.
For `Cc1ccc2c(n1)c1c(c(=O)n2C)N(C)C(=O)[C@H]2CN(C(c3ccc(F)cc3)c3ccc(F)cc3)[C@H](C)CN12` [Example 5, (8aR,11R)-10-(Bis(4-fluorophenyl)methyl)-2,5,7,11-tetramethyl-5,7,9,10,11,12-hexahydro-6H-pyrazino[1′,2′:4,5]pyrazino[2,3-c][1,5]naphthyridine-6,8(8aH)-dione] the same measures were not above 0.04 µM and more than 2 µM.
For `COCCN1C(=O)[C@H]2CN(C(c3ccc(F)cc3)c3ccc(F)cc3)[C@H](C)CN2c2c1c(=O)n(C)c1ccc(C#N)nc21` [Example 2, (8aR,11R)-10-(Bis(4-fluorophenyl)methyl)-7-(2-methoxyethyl)-5,11-dimethyl-6,8-dioxo-5,7,8,8a,9,10,11,12-octahydro-6H-pyrazino[1′,2′:4,5]pyrazino[2,3-c][1,5]naphthyridine-2-carbonitrile], the IC50 on DGKα fell in the range of 0.04 to 0.2 µM; at DGKζ, 0.2 to 2 µM.
Regarding `C[C@@H]1CN2c3c(c(=O)n(C)c4ccccc34)N(C)C(=O)[C@H]2CN1C(c1ccc(F)cc1)c1ccc(F)cc1` [Example 3, (2R,4aR)-3-(Bis(4-fluorophenyl)methyl)-2,6,8-trimethyl-2,3,4,4a,6,8-hexahydro-1H-pyrazino[1′,2′:4,5]pyrazino[2,3-c]quinoline-5,7-dione], the concentration for half-maximal inhibition (IC50) at DGKα was not above 0.04 µM; at DGKζ, more than 2 µM.
Turning to `C[C@@H]1CN2c3c(c(=O)n(C)c4ccc(F)nc34)N(C)C(=O)[C@H]2CN1C(c1ccc(F)cc1)c1ccc(F)cc1` [Example 4, (8aR,11R)-10-(Bis(4-fluorophenyl)methyl)-2-fluoro-5,7,11-trimethyl-5,7,9,10,11,12-hexahydro-6H-pyrazino[1′,2′:4,5]pyrazino[2,3-c][1,5]naphthyridine-6,8(8aH)-dione], the IC50 is not above 0.04 µM on DGKα and 0.2 to 2 µM at DGKζ.
For `C[C@@H]1CN2c3c(c(=O)n(C)c4ccc(=O)[nH]c34)N(C)C(=O)[C@H]2CN1C(c1ccc(F)cc1)c1ccc(F)cc1` [Example 9, (8aR,11R)-10-(Bis(4-fluorophenyl)methyl)-5,7,11-trimethyl-5,7,9,10,11,12-hexahydro-1H-pyrazino[1′,2′:4,5]pyrazino[2,3-c][1,5]naphthyridine-2,6,8(8aH)-trione], the IC50 is not above 0.04 µM on DGKα and more than 2 µM at DGKζ.
Turning to `C[C@@H]1CN2c3c(c(=O)n(C)c4ccc(C#N)nc34)N(C)C(=O)[C@H]2CN1C(c1ccc(F)cc1)c1ccc(F)cc1` [Example 1, (8aR,11R)-10-(Bis(4-fluorophenyl)methyl)-5,7,11-trimethyl-6,8-dioxo-5,7,8,8a,9,10,11,12-octahydro-6H-pyrazino[1′,2′:4,5]pyrazino[2,3-c][1,5]naphthyridine-2-carbonitrile], the IC50 on DGKα is not above 0.04 µM; on DGKζ, 0.2 to 2 µM.
